Data published in patent US20030133974A1 (priority 1997, published 2003).
Where a name gives a salt, the structure may show the parent alone.

Columns and labels:
[1] = Precipitation studies with sertraline base in 0.1N HCl and phosphate buffered saline pH 5.8 (Example 4)
Procedure: Solution (a) is a simulated gastric fluid, and solution (b) is a simulated intestinal fluid.
PEG400 is miscible with aqueous media, while Capmul®-MCM and safflower oil are not. One milliliter of the test solution was added to 10 mL of (a) 0.1N HCl solution and (b) phosphate buffered saline (PBS) pH 5.8 and was stirred vigorously.
Mobile phase: per liter of mobile phase: 270 mL of tetrahydrofuran, 230 mL of methanol and 400 mL of buffer. The buffer consisted of 25 mM triethylamine phosphate. It was prepared by adding 1.7 mL of phosphoric acid and 3.5 mL of tirethylamine to 1 liter of water.

[2] = Equilibrium solubility of sertraline base and hydrochloride in selected vehicles (Table 4-4); assay type: physicochemical; conditions: vehicle Miglyol 810
Description: Water-immiscible vehicles do have this capacity.

[3] = Dilution of PEG-400 or polysorbate-80 solution of sertraline base into 0.9% NaCl (Example 3); assay type: physicochemical
Procedure: One ml of this test solution was added to 15 ml normal saline (0.9% NaCl, pH 4.2), and was stirred vigorously.

[4] = physchem; conditions: simulated gastric fluid
[5] = Chloride-induced gelling of sertraline salt solutions; assay type: physicochemical
[6] = clinical; conditions: human, in vivo, po
[7] = human, in vivo
[8] = Human crossover pharmacokinetics of 200 mg sertraline delivered to various portions of the gastrointestinal tract (Example 1); assay type: in vivo; conditions: Group A
[9] = dosed as Zoloft tablets; cited from earlier work
[10] = in water; cited from earlier work

Question: With `CN[C@H]1CC[C@@H](c2ccc(Cl)c(Cl)c2)c2ccccc21` [Free base, sertraline free base] as the compound, how does the “Concentration of sertraline in aqueous layer” value (“Concentration of sertraline” for short) ([1]; Capmul MCM 50 mgA/mL, 1 mL into 10 mL phosphate buffered saline pH 5.8, 120 minutes) read?
Answer: Its value is 0.16 mgA/mL.

Question: What about the “Concentration of sertraline” value ([1]; Safflower oil 50 mgA/mL, 1 mL into 10 mL 0.1 N HCl, 120 minutes) of the same compound?
Answer: Its value is 0.48 mgA/mL.

Question: What about the “Concentration of sertraline” value ([1]; Safflower oil 50 mgA/mL, 1 mL into 10 mL phosphate buffered saline pH 5.8, 120 minutes) of the same compound?
Answer: Its value is 0.19 mgA/mL.

Question: What about the Precipitation of sertraline ([1]; solution in safflower oil added to phosphate buffered saline) of the same compound?
Answer: The Precipitation of sertraline was “little or no precipitation”.

Question: What about the “Equilibrium solubility in Miglyol 810” value [2] of the same compound?
Answer: Its value is greater than 50 mgA/ml.

Question: And the “Observed Concentration after Dilution in Saline after 2 hr” value ([3]; vehicle Polysorbate-80, 50 mgA/ml in vehicle, 1 ml into 15 ml 0.9% NaCl)?
Answer: The value was 3.1 mgA/ml.

Question: For `CN[C@H]1CC[C@@H](c2ccc(Cl)c(Cl)c2)c2ccccc21` [Hydrochloride, sertraline hydrochloride], which solubility [4] is on record?
Answer: The solubility was roughly 3000 µg/mL.

Question: What about the “Equilibrium solubility in Miglyol 810” value ([2]; hydrochloride) of the same compound?
Answer: Its value is “greater than 0.1 mgA/ml”.

Question: With `CN[C@H]1CC[C@@H](c2ccc(Cl)c(Cl)c2)c2ccccc21` [Lactate, sertraline lactate] as the compound, how does the “State of saturated solution at physiological chloride concentrations” value [5] read?
Answer: The value was “thick pasty solid which does not flow”.

Question: With `CN[C@H]1CC[C@@H](c2ccc(Cl)c(Cl)c2)c2ccccc21` [sertraline] as the compound, how does the Tmax [6] read?
Answer: The Tmax was less than 1.5 h.

Question: What about the Precipitation of sertraline ([1]; PEG 400 solution added into either 0.1 N HCl or phosphate buffered saline) of the same compound?
Answer: Its Precipitation of sertraline is “precipitation of a large proportion of sertraline”.

Question: And the “Portion of sertraline remaining in solution” value ([1]; vehicle Capmul-MCM, 0.1 N HCl or phosphate buffered saline)?
Answer: The value was > 95 % of added amount.

Question: And the “Intrinsic absorption rate constant (ARC)” value [7]?
Answer: Its value is “greater than 0.025 min^−1”.

Question: What about the “Precipitation upon addition to a NaCl solution” value ([3]; PEG400 solution of sertraline) of the same compound?
Answer: Its value is “a portion of the sertraline precipitates”.

Question: What about the “Precipitation upon addition to a NaCl solution” value ([3]; Polysorbate-80 solution of sertraline) of the same compound?
Answer: Its value is “no precipitation occurs”.

Question: What about the AUCO-LAST ([8]; Ileocecal Infusion of solution) of the same compound?
Answer: Its AUCO-LAST is 727.1 ng·h/mL.

Question: What about the AUCO-LAST ([8]; Oral Tablet (two 100 mg Zoloft tablets)) of the same compound?
Answer: The AUCO-LAST was 1174.5 ng·h/mL.

Question: What about the AUCO-LAST ([8]; Stomach Infusion of solution) of the same compound?
Answer: The AUCO-LAST was 923.1 ng·h/mL.

Question: And the Absolute oral bioavailability [9]?
Answer: The Absolute oral bioavailability was 54%.

Question: With sertraline acetate as the compound, how does the “State of saturated solution at physiological chloride concentrations” value [5] read?
Answer: Its value is “thick pasty solid which does not flow”.

Question: For vitamin E, which Aqueous solubility [10] is on record?
Answer: Its Aqueous solubility is “practically insoluble in water”.
